This is an account of results in patent EP1595878A1, “INDOLE DERIVATIVES WITH APOPTOSIS INDUCING ACTIVITY” (Zentaris GmbH, priority 2004, dated 2005).

Where two headings read alike, the source gives them in different places.

For series [1], the system named is Rindertubulin. The series is described as follows: Inhibition of tubulin polymerisation in vitro. Format: biochemical, Rind. To be noted: for Hemmwirkung auf die Polymerisation von Tubulin: verbal summary of Table 3; for EC50: cells print µM, head µg/ml, read-out: Hemmung der Tubulin-Polymerisation, EC50. From the text: Die Substanzen 1, 4, 9, 11, 12, 13 und 15 wurden in einem in-vitro Test auf Hemmung der Polymerisation von Rindertubulin getestet (D.M. Bollag et al. Cancer Res. 1995, 55, 2325-2333). In diesem Test wird durch Zyklen von Polymerisation und Depolymerisation aufgereinigtes Tubulin eingesetzt, welches durch Zugabe von GTP und Erwärmung zur Polymerisation gebracht wird. In Tabelle 3 sind die EC50 Werte der Polymerisationshemmung von Tubulin mit 30% assoziierten Proteinen (MAPs) angegeben.

The test system of series [2] is Melanom, MEXF462. Format: in vivo, Mäuse. As to conditions: for Todesfällen: dead animals / total. From the text:
Die in vivo Aktivität und Verträglichkeit der erfindungsgemäßen Verbindung 2 wurde im Vergleich zu den Substanzen 10 und 14 in einem humanen Xenograft-Modell (Melanom, MEXF462) überprüft. Die Ergebnisse sind in der nachfolgenden Tabelle 6 zusammengefasst: in vivo Aktivitäten von Verbindung 2, 10 and 14 (Melanom; MEXF462) Tabelle 6: […]

The test system of series [3] is KB/HeLa Zellen. The series is described as follows: Cell cycle analysis (G2/M arrest). Format: cell-based. As to conditions: Homo sapiens, HeLa, 24 h, read-out: EC50 in nM (50% cells in G2/M). From the text: Der Zellzyklus umfasst die Entwicklung der Zelle von einer Zellgeneration zur nächsten.
Während der Ruhephase (G0) und präsynthetischen Phase (G1) besitzt die Zelle einen diploiden Chromosomensatz (2c). In der Synthesephase (S) wird die DNA-Menge durch Replikation vermehrt. Die S-Phase endet mit Erreichen der prämitotischen Phase (G2M), in der die Zelle einen reduplizierten Chromosomenbestand (4c) und verdoppelten DNA-Gehalt aufweist. In der nachfolgenden, kurzdauernden Mitosephase (M) kommt es zur gleichmäßigen Aufteilung der reduplizierten Chromosomen auf zwei Tochterzellen, die dann jeweils wieder einen diploiden DNA Gehalt zeigen und sich in der G01-Phase befinden, so daß der Zellzyklus neu beginnen kann.
Für die Zellzyklusanalyse wurden KB/HeLa Zellen mit den Testsubstanzen in unterschiedlichen Konzentrationen (0.1-1000 nM) 24 Stunden bei 37°C behandelt.
Der prozentuale Anteil der in der G2/M Phase des Zellzyklus arrettierten Zellen nach Behandlung mit Referenz- oder ausgewählten Testsubstanzen ist in der nachfolgenden Tabelle 4 dargestellt. Die Ergebnisse wurden mit einer speziellen Analysesoftware (ModFit™) ausgewertet.

Series [4] relates to humane Glioblastom Zelllinie SF-268 (NCI 503138). The series is described as follows: XTT proliferation assay (cytotoxicity test), SF-268. Format: cell-based. As to conditions: Homo sapiens, read-out: XTT Proliferationsassay, EC50. From the text: (§1) Die Substanzen 1, 2, 4, 9, 11, 12 , 13 und 15 wurden in einem Proliferationstest an etablierten Tumorzelllinien auf ihre anti-proliferative Aktivität hin untersucht (D.A. Scuderio et al. Cancer Res. 1988, 48, 4827-4833). Der verwendete Test bestimmt die zelluläre Dehydrogenase-Aktivität und ermöglicht eine Bestimmung der Zellvitalität und indirekt der Zellzahl. Bei den verwendeten Zelllinien handelt es sich um die humane Cervixkarzinom Zelllinie KB/HeLa (ATCC CCL17), die ovariale Adenokarzinomzelllinie SKOV-3 (ATCC HTB77), die humane Glioblastom Zelllinie SF-268 (NCI 503138) und die Lungenkarzinom Zelllinie NCI-H460 (NCI 503473).
(Tetrazolium dyes change colour on reduction, which living cells bring about.)

For series [5], the system named is humane Cervixkarzinom Zelllinie KB/HeLa (ATCC CCL17). Kind of series: XTT proliferation assay (cytotoxicity test), KB/HeLa. It counts as cell-based. To be noted: Homo sapiens, read-out: XTT Proliferationsassay, EC50.
From the text: as §1

Series [6] relates to Mamma, MAXF857. Format: in vivo, Mäuse. To be noted: 40 mg/kg p.o.; for Todesfällen: dead animals / total. From the text:
Die in vivo Aktivität und Verträglichkeit der erfindungsgemäßen Verbindung 2 wurde im Vergleich zu der Substanz 10 in einem weiteren humanen Xenograft-Modell (Mamma, MAXF857) überprüft. Die Ergebnisse werden in der nächsten Tabelle gezeigt: Effect of 2 and 10 on the Mammary Cancer MAXF857 Tabelle 7: […]

Series [7] relates to ovariale Adenokarzinomzelllinie SKOV-3 (ATCC HTB77). Kind of series: XTT proliferation assay (cytotoxicity test), SKOV-3. To be noted: Homo sapiens, SK-OV-3; SKOV3; read-out: XTT Proliferationsassay, EC50. Format: cell-based.
From the text: as §1

The subject of series [8] is Lungenkarzinom Zelllinie NCI-H460 (NCI 503473). Kind of series: XTT proliferation assay (cytotoxicity test), NCI-H460. Format: cell-based. To be noted: Homo sapiens, NCl-H460, read-out: XTT Proliferationsassay, EC50.
From the text: as §1

The target of series [9] is humaner DNA-Topoisomerase II (Homo sapiens, UniProt P11388). Kind of series: kDNA decatenation assay for topoisomerase II activity. As to conditions: compound 1 at 100, 31.6 and 10 µM; reference compounds at 100 µM. Format: biochemical. How it is done:
In diesem von P. Arimondo (Anti-Cancer Drug Design 2000, 15 (6), 413-421) beschriebenen Assay wird kDNA mit humaner DNA-Topoisomerase II in Abwesenheit oder Gegenwart der Testverbindungen behandelt. Die Testung der erfindungsgemäßen Verbindung 1 erfolgte hierbei bei drei unterschiedlichen Konzentrationen (100, 31.6 und 10 µM). Zum Vergleich setzte man eine Positivkontrolle und die Referenzverbindungen m-Amsacrin (m-Amsa), Paclitaxel (Taxol) und Vincristine bei einer jeweiligen Konzentration von 100µM ein.
Zu 1µL vorgelegter Testsubstanz (20fach konzentriert in 100% DMSO) werden 2µL 10x Assay Puffer, 1µL kDNA (200ng), 0,5µL human Topoisomerase II (1unit) und 15,5µL H2O pipettiert und gemischt.
Die Reaktionsansätze werden in den auf 37°C vorgeheizten Heizblock gestellt und 10min bei 37°C inkubiert. Die Inkubation wird nach Zugabe von 4µL 5x Stop Puffer gestoppt und nachfolgend die Substanz mit CIA extrahiert. Danach werden 20µL des Überstandes auf ein 1 % Agarosegel mit 0,25µg/mL Ethidiumbromid aufgetragen und 1 h bei 100V aufgetrennt. Zum Schluss wird das Gel unter UV-Anregung fotografiert (s. Figur 1). Die Quantifizierung der Inhibierung der Decatenation von kDNA erfolgt mit der GelPro®Analyzer Software (s. Figur 2)

In series [10] the target is human Topoisomerase II (Homo sapiens, UniProt P11388). The series is described as follows: pRYG relaxation assay for topoisomerase II activity. It counts as biochemical. As to conditions: compound 1 at 100, 31.6 and 10 µM; reference compounds at 316 and 100 µM. Here is the method: Mit diesem Relaxationsassay konnte zusätzlich die inhibitorische Eigenschaft der erfindungsgemäßen Verbindungen auf Topoisomerase II gezeigt werden. Die Testung der erfindungsgemäßen Verbindung 1 erfolgte hierbei bei drei unterschiedlichen Konzentrationen (100, 31.6 und 10 µM). Zum Vergleich setzte man die Referenzverbindungen m-Amsacrin, Paclitaxel (Taxol) und Vincristine bei Konzentrationen von 316 und 100µM ein.
human Topoisomerase II, sequence (P11388 whole entry): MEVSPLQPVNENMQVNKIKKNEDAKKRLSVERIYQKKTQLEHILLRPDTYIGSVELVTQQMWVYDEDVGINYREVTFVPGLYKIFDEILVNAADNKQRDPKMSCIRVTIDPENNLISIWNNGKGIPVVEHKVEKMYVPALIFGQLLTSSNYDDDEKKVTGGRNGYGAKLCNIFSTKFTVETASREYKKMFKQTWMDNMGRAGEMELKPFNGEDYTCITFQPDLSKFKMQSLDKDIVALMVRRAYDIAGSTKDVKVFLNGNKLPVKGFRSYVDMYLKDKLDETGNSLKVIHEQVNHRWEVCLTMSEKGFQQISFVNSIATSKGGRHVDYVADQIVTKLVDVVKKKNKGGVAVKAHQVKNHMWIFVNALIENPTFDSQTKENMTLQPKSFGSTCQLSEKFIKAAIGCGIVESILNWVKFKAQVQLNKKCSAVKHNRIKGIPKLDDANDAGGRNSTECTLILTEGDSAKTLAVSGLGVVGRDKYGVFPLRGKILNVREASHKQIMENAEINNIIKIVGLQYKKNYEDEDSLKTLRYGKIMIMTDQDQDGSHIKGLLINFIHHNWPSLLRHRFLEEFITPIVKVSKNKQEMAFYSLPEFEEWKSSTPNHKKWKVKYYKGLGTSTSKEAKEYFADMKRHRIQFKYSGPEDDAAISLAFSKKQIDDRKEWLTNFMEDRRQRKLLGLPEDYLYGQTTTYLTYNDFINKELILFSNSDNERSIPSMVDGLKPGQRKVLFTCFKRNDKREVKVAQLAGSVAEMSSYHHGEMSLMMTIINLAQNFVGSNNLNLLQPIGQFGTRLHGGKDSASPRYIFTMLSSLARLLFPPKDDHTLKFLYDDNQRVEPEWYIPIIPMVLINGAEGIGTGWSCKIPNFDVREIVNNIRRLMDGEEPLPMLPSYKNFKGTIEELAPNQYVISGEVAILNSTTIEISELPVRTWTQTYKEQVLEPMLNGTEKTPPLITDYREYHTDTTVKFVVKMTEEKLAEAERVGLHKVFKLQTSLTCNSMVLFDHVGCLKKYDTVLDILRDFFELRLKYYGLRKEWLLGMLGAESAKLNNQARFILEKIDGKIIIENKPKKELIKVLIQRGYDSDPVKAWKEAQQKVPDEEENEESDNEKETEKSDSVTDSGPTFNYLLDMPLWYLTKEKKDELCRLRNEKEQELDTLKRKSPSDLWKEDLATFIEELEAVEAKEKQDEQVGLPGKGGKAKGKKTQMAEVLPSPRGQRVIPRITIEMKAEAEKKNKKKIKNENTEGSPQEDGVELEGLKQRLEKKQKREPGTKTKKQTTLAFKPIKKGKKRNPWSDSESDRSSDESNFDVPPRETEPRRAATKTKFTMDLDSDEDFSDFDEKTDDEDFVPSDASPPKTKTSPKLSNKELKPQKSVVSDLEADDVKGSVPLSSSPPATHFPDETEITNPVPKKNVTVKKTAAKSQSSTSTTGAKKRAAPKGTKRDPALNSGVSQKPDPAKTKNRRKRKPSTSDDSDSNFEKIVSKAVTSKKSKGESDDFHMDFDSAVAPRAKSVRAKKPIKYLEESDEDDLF
Zu 1µL vorgelegter Testsubstanz (20fach konzentriert in 100% DMSO) werden 2µL 10x Assay Puffer, 0,5µL pRYG DNA (125ng), 0,5µL human Topoisomerase II (1 unit) und 16µL H2O pipettiert und gemischt. Die Reaktionsansätze werden in den auf 37°C vorgeheizten Heizblock gestellt und 30min bei 37°C inkubiert. Die Inkubation wird nach Zugabe von 4µL 5x Stop Puffer abgestoppt. Danach werden 10µL des Ansatzes auf ein 1,2% Agarosegel mit 0,25µg/mL Ethidiumbromid aufgetragen und 2,5h bei 100V aufgetrennt. Zum Schluß wird das Gel unter UV Anregung fotografiert (s. Figur 3). Die Quantifizierung der Inhibierung der pRYG Relaxation erfolgt mit der GelPro®Analyzer Software (s. Figur 4).

[11] abbreviates: tubulin with 30% associated proteins (MAPs).

humaner DNA-Topoisomerase II, sequence (P11388 whole entry): as above

On to `O=C(Nc1ccc2ncccc2c1)C(=S)c1cn(Cc2ccc(Cl)cc2)c2ccccc12` [Verbindung 11, 2-[1-(4-Chlor-benzyl)-1H-indol-3-yl]-N-chinolin-6-yl-2-thioxo-acetamid], for which the “Hemmung der Tubulin-Polymerisation, EC50” value in series [1] (tubulin with 30% associated proteins (MAPs), mean of two independent experiments) turned out to be 0.97 µg/mL. For the same compound, in series [1], the “Hemmwirkung auf die Polymerisation von Tubulin” value is recorded as “sehr potente Hemmwirkung”.
On to `O=C(Nc1ccncc1)C(=O)c1cn(Cc2ccc(Cl)cc2)c2ccccc12` [Verbindung 14, 2-[1-(4-Chlor-benzyl)-1H-indol-3-yl]-2-oxo-N-pyridin-4-yl-acetamid], for which the “Optimale T/C % (Tag)” value in series [2] (16 mg/kg p.o., day 18) is recorded as 0.7% (18); in series [2] (32 mg/kg p.o., day 7), 14.6% (7). In addition, the Todesfällen in [2] (16 mg/kg p.o.) and in series [2] (32 mg/kg p.o.) was 3/5 Mäuse tot throughout. The EC50 in [3] was above 1000 nM.
In the case of `Cc1ccc2cc(NC(=O)C(=O)c3cn(Cc4ccc(Cl)cc4)c4ccccc34)ccc2n1` [Verbindung 9, 2-[1-(4-Chlor-benzyl)-1H-indol-3-yl]-N-(2-methyl-chinolin-6-yl)-2-oxo-acetamid], in series [1], the “Hemmwirkung auf die Polymerisation von Tubulin” value is “sehr potente Hemmwirkung”.
Consider `Cc1ccc2cccc(NC(=O)C(=O)c3cn(Cc4ccc(F)cc4)c4ccccc34)c2n1` [Verbindung 15, 2-[1-(4-Fluor-benzyl)-1H-indol-3-yl]-N-(2-methyl-chinolin-8-yl)-2-oxo-acetamid], for which the values for the EC50 in series [1] (setting [11]), in series [4] and in series [5] were above 10 µM, above 3.16 µg/mL and above 3.16 µg/mL, respectively. In addition, the “Hemmwirkung auf die Polymerisation von Tubulin” value in [1] was “keinen Effekt”.
In the case of `O=C(Nc1ccc2ncccc2c1)C(=O)c1cn(Cc2ccc(Cl)cc2)c2ccccc12` [Verbindung 10, 2-[1-(4-Chlor-benzyl)-1H-indol-3-yl]-2-oxo-N-chinolin-6-yl-acetamid], the “Optimale T/C % (Tag)” value is 0.8% (14) in [2] (55 mg/kg p.o., day 14); 2.3% (7) in [2] (70 mg/kg p.o., day 7); 6.5% (10) in series [6] (day 10). Also, the Todesfällen in [2] (55 mg/kg p.o.) is 2/6 Mäuse tot; in series [2] (70 mg/kg p.o.) it was 5/6 Mäuse tot; in [6], 2/6; in [6] (listed as 10 (V)), 2/6 Mäuse tot.
Regarding `O=C(Nc1cccc2cnccc12)C(=O)c1cn(Cc2ccc(Cl)cc2)c2ccccc12` [Verbindung 13, 2-[1-(4-Chlor-benzyl)-1H-indol-3-yl]-N-isochinolin-5-yl-2-oxo-acetamid], the EC50 in series [1] (setting [11]) is above 10 µM; in series [4], above 3.16 µg/mL; in series [5], above 3.16 µg/mL; in series [7], above 3.16 µg/mL; in series [8], above 3.16 µg/mL. Moreover, the “Hemmwirkung auf die Polymerisation von Tubulin” value in series [1] is reported as “keinen Effekt”.
With `CC(=O)O[C@H]1C(=O)[C@@]2(C)[C@H]([C@H](OC(=O)c3ccccc3)[C@]3(O)C[C@H](OC(=O)[C@H](O)[C@@H](NC(=O)c4ccccc4)c4ccccc4)C(C)=C1C3(C)C)[C@]1(OC(C)=O)CO[C@@H]1C[C@@H]2O` [Paclitaxel], in series [9], the “Hemmung der Topoisomerase II (Inhibierung der Decatenation von kDNA)” value is recorded as “keine inhibitorischen Effekte”. Also, the “Hemmung der Topoisomerase II (Inhibierung der pRYG Relaxation)” value in series [10] was “keine inhibitorischen Effekte”.
On to `O=C(Nc1cccc2cccnc12)C(=O)c1cn(Cc2ccc(Cl)cc2)c2ccccc12` [Verbindung 12, 2-[1-(4-Chlor-benzyl)-1H-indol-3-yl]-2-oxo-N-chinolin-8-yl-acetamid], for which the EC50 in [1] (setting [11]) is above 10 µM; in series [4], above 3.16 µg/mL; in [5], above 3.16 µg/mL; in [7], above 3.16 µg/mL; in series [8], above 3.16 µg/mL. The “Hemmwirkung auf die Polymerisation von Tubulin” value in series [1] is “keinen Effekt”.
Turning to `CC[C@]1(O)C[C@H]2CN(CCc3c([nH]c4ccccc34)[C@@](C(=O)OC)(c3cc4c(cc3OC)N(C=O)[C@H]3[C@@](O)(C(=O)OC)[C@H](OC(C)=O)[C@]5(CC)C=CCN6CC[C@]43[C@@H]65)C2)C1` [Vincristine], the “Hemmung der Topoisomerase II (Inhibierung der Decatenation von kDNA)” value in [9] is “keine inhibitorischen Effekte”. For the same compound, the “Hemmung der Topoisomerase II (Inhibierung der pRYG Relaxation)” value in [10] was “keine inhibitorischen Effekte”.
